Experimental data reported in patent US10294202B2, “Pyrrolidinones as herbicides” (FMC Corporation, priority 2013, dated 2019).

What was measured:
rice = test: Test B flooded paddy test; type: in vivo, Oryza sativa; conditions: 500 g ai/ha, Flood; scale of 0 to 100 where 0 is no effect and 100 is complete control
How it was run: (§1)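 Plants were grown to the 2-leaf stage, then pots were flooded to 3 cm above the soil and compound was applied directly into the paddy water, with that depth held throughout. After 13 to 15 days in a greenhouse, injury was rated visually against untreated controls on a 0 to 100 scale (100 = complete control).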

barnyardgrass [1] = test: Test B flooded paddy test; type: in vivo, Echinochloa crus-galli; conditions: 500 g ai/ha, Flood; scale of 0 to 100 where 0 is no effect and 100 is complete control
How it was run: as §1

ryegrass, Italian = test: Test A pre-/postemergence herbicide test; type: in vivo, Lolium multiflorum
How it was run: (§2)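 Scoring was visual, relative to untreated controls, on a 0–100 scale after about 10 greenhouse days. Preemergence treatment used a directed soil spray over seeded loam/sand; postemergence treatment targeted one- to two-leaf plants of 2–10 cm.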

ducksalad = test: Test B flooded paddy test; type: in vivo, Heteranthera limosa; conditions: 500 g ai/ha, Flood; scale of 0 to 100 where 0 is no effect and 100 is complete control
How it was run: as §1

sedge, umbrella = test: Test B flooded paddy test; type: in vivo, Cyperus difformis; conditions: 500 g ai/ha, Flood; scale of 0 to 100 where 0 is no effect and 100 is complete control
How it was run: as §1

galium = test: Test A postemergence herbicide test; type: in vivo, Galium aparine
How it was run: (§3)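 Ratings compare treated with untreated plants roughly 10 days after a postemergence application made at the one- to two-leaf stage. Scoring uses 0–100, where 0 means no effect and 100 complete control.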

blackgrass = test: Test A postemergence herbicide test; type: in vivo, Alopecurus myosuroides
How it was run: as §3

corn = test: Test A pre-/postemergence herbicide test; type: in vivo, Zea mays; conditions: Postemergence
How it was run: as §2

kochia = test: Test A pre-/postemergence herbicide test; type: in vivo, Kochia scoparia
How it was run: as §2

ragweed = test: Test A pre-/postemergence herbicide test; type: in vivo, Ambrosia elatior
How it was run: as §2

barnyardgrass [2] = test: Test A pre-/postemergence herbicide test; type: in vivo, Echinochloa crus-galli
How it was run: as §2

giant foxtail = test: Test A pre-/postemergence herbicide test; type: in vivo, Setaria faberii
How it was run: as §2

pigweed = test: Test A pre-/postemergence herbicide test; type: in vivo, Amaranthus retroflexus
How it was run: as §2

wheat = test: Test A pre-/postemergence herbicide test; type: in vivo, Triticum aestivum; conditions: Postemergence
How it was run: as §2

[3] = Postemergence, 125 g ai/ha, visual rating on 0 to 100 scale (0 no effect, 100 complete control), approx. 10 days
[4] = Postemergence, 500 g ai/ha, 0 to 100 scale (0 no effect, 100 complete control)
[5] = Preemergence, 125 g ai/ha, 0 to 100 scale where 0 is no effect and 100 is complete control
[6] = Preemergence, 500 g ai/ha, visual rating on 0 to 100 scale (0 no effect, 100 complete control)
[7] = 125 g ai/ha, visual rating on 0 to 100 scale (0 no effect, 100 complete control), approx. 10 days
[8] = 500 g ai/ha, 0 to 100 scale (0 no effect, 100 complete control)
[9] = preemergence, 500 g ai/ha, 0 to 100 scale, 0 is no effect and 100 is complete control

SMILES	Plant response rating, Rice (rice)	Plant response rating, Barnyardgrass (barnyardgrass [1])	Plant response rating, Ryegrass, Italian (ryegrass, Italian; [3])	Plant response rating, Ryegrass, Italian (ryegrass, Italian; [4])	Plant response rating, Ryegrass, Italian (ryegrass, Italian; [5])	Ryegrass, Italian plant response rating (ryegrass, Italian; [6])	Plant response rating, Ducksalad (ducksalad)	Plant response rating, Sedge, Umbrella (sedge, umbrella)	Plant response rating, Galium (galium; [7])	Plant response rating, Galium (galium; [8])	Plant response rating, Blackgrass (blackgrass; [7])	Plant response rating, Blackgrass (blackgrass; [8])	Plant response rating, Corn (corn; [7])	Plant response rating, Corn (corn; [8])	Plant response rating, Kochia (kochia; [3])	Plant response rating, Kochia (kochia; [4])	Plant response rating, Kochia (kochia; [5])	Plant response rating, Kochia (kochia; [9])	Plant response rating, Ragweed (ragweed; [3])	Plant response rating, Ragweed (ragweed; [4])	further results
O=C1NCC(c2ccc(Cl)o2)C1C(=O)Nc1cccc(F)c1F (stereo not drawn) [Compound 285]	0	20	0	0	0	0	100	0	0	0	0	0	0	0	0	0	0	0	0	0	Plant response rating, Ragweed (ragweed; [5]): 0; Plant response rating, Ragweed (ragweed; [9]): 0; Plant response rating, Barnyardgrass (barnyardgrass [2]; [3]): 20; Plant response rating, Barnyardgrass (barnyardgrass [2]; [4]): 70; Plant response rating, Barnyardgrass (barnyardgrass [2]; [5]): 0; Plant response rating, Barnyardgrass (barnyardgrass [2]; [9]): 0; Plant response rating, Foxtail, Giant (giant foxtail; [3]): 0; Plant response rating, Foxtail, Giant (giant foxtail; [4]): 0; Plant response rating, Foxtail, Giant (giant foxtail; [5]): 0; Plant response rating, Foxtail, Giant (giant foxtail; [9]): 10; Plant response rating, Pigweed (pigweed; [3]): 0; Plant response rating, Pigweed (pigweed; [4]): 0; Plant response rating, Pigweed (pigweed; [5]): 0; Plant response rating, Pigweed (pigweed; [9]): 0; Plant response rating, Wheat (wheat; [7]): 0; Plant response rating, Wheat (wheat; [8]): 0
O=C1NCC(c2ccc(Cl)c(Cl)c2)C1C(=O)Nc1ccc(F)c(F)c1F (stereo not drawn) [Compound 286]	10	15	0	20	0	20	75	0	0	0	0	0	0	0	0	20	30	40	0	0	Plant response rating, Ragweed (ragweed; [5]): 0; Plant response rating, Ragweed (ragweed; [9]): 0; Plant response rating, Barnyardgrass (barnyardgrass [2]; [3]): 60; Plant response rating, Barnyardgrass (barnyardgrass [2]; [4]): 60; Plant response rating, Barnyardgrass (barnyardgrass [2]; [5]): 60; Plant response rating, Barnyardgrass (barnyardgrass [2]; [9]): 60; Plant response rating, Foxtail, Giant (giant foxtail; [3]): 60; Plant response rating, Foxtail, Giant (giant foxtail; [4]): 70; Plant response rating, Foxtail, Giant (giant foxtail; [5]): 80; Plant response rating, Foxtail, Giant (giant foxtail; [9]): 80; Plant response rating, Pigweed (pigweed; [3]): 0; Plant response rating, Pigweed (pigweed; [4]): 0; Plant response rating, Pigweed (pigweed; [5]): 20; Plant response rating, Pigweed (pigweed; [9]): 30; Plant response rating, Wheat (wheat; [7]): 0; Plant response rating, Wheat (wheat; [8]): 0
CSc1cccc(C2CNC(=O)C2C(=O)Nc2ccccc2F)c1 (stereo not drawn) [Compound 287]	0	30	0	0	0	0	75	0	0	0	0	0	0	0	0	0	0	0	0	0	Plant response rating, Ragweed (ragweed; [5]): 0; Plant response rating, Ragweed (ragweed; [9]): 0; Plant response rating, Barnyardgrass (barnyardgrass [2]; [3]): 50; Plant response rating, Barnyardgrass (barnyardgrass [2]; [4]): 80; Plant response rating, Barnyardgrass (barnyardgrass [2]; [5]): 50; Plant response rating, Barnyardgrass (barnyardgrass [2]; [9]): 80; Plant response rating, Foxtail, Giant (giant foxtail; [3]): 0; Plant response rating, Foxtail, Giant (giant foxtail; [4]): 0; Plant response rating, Foxtail, Giant (giant foxtail; [5]): 50; Plant response rating, Foxtail, Giant (giant foxtail; [9]): 80; Plant response rating, Pigweed (pigweed; [3]): 0; Plant response rating, Pigweed (pigweed; [4]): 0; Plant response rating, Pigweed (pigweed; [5]): 0; Plant response rating, Pigweed (pigweed; [9]): 0; Plant response rating, Wheat (wheat; [7]): 0; Plant response rating, Wheat (wheat; [8]): 0
